Experimental data published in patent publication US20190241569A1, “3-(ARYL OR HETEROARYL) METHYLENEINDOLIN-2-ONE DERIVATIVES AS INHIBITORS OF CANCER STEM CELL PATHWAY KINASES FOR THE TREATMENT OF CANCER” (Boston Biomedical, Inc., priority 2013, published 2019).

Columns and labels:
Format in all cases: cell-based
A549 = assay: Bulk cancer cells, Cell Titer-Glo 72 hours (Test Example 2); settings: Homo sapiens
Experimental: (§1) Tubes of 3× drug (60 uM in 500 uL complete media) were prepared from 5 mM stock solutions in DMSO. […] To treat cells, 50 uL of drug from the dilution plate was removed and added to the cell plates. […] Cells were harvested 72 hours after drug addition using Cell Titer-Glo (Promega) and luminescence measured on a plate reader.

ACHN = assay: as above; settings: Homo sapiens, ACHN, 72 h
Experimental: as §1

FaDu = assay: as above; settings: Homo sapiens
Experimental: as §1

FaDu CSC = assay: Cancer stem cells, Cell Titer-Glo 72 hours (Test Example 3); settings: Homo sapiens, FaDu, 72 h
A549 CSC = assay: as above; settings: Homo sapiens
ACHN CSC = assay: as above; settings: Homo sapiens, ACHN, 72 h

IC50 (A549) | IC50 (ACHN) | IC50 (FaDu) | IC50 (FaDu CSC) | IC50 (A549 CSC) | IC50 (ACHN CSC) | Compound
2.76 µM | 2.53 µM | 2.14 µM | 1.54 µM | 7.55 µM | 2.17 µM | CCN(CC)CCNC(=O)c1c(C)[nH]c(/C=C2\C(=O)Nc3cc(-c4ccc(O)cc4C)ccc32)c1C [Example 265]
2.3 µM | 7.41 µM | 4.92 µM | 3.96 µM | 6.45 µM | 0.63 µM | CCN(CC)CCNC(=O)c1c(C)[nH]c(/C=C2\C(=O)Nc3ccc(-c4ccc(-c5ccccc5)nc4)cc32)c1C [Example 194]
9.61 µM | 12.6 µM | 18.6 µM | 6.74 µM | 4.8 µM | 6.16 µM | COC(=O)c1c(C)[nH]c(/C=C2\C(=O)Nc3ccc(-c4csc(-c5ccncc5)n4)cc32)c1C [Example 145]
3.85 µM | 6.39 µM | 4.59 µM | 5.47 µM | 6.83 µM | 0.62 µM | CCN(CC)CCNC(=O)c1c(C)[nH]c(/C=C2\C(=O)Nc3ccc(-c4cnc5ccccc5c4)cc32)c1C [Example 204]
9.19 µM | 3.61 µM | 1.66 µM | 22.1 µM | 7.18 µM | 28.9 µM | O=C1Nc2ccc(-c3csc(-c4ccncc4)n3)cc2/C1=C/c1cnc[nH]1 [Example 152]
9.94 µM | 11.3 µM | 18.3 µM | 3.6 µM | 10.5 µM | 0.69 µM | CCN(CC)CCN(C)C(=O)c1c(C)[nH]c(/C=C2\C(=O)Nc3ccc(-c4csc(-c5ccccc5)n4)cc32)c1C [Example 129, (Z)-N-(2-(diethylamino)ethyl)-N,2,4-trimethyl-5-((2-oxo-5-(2-phenylthiazol-4-yl)indolin-3-ylidene)methyl)-1H-pyrrole-3-carboxamide]
1.11 µM | 2.48 µM | 3.85 µM | 3.53 µM | 8.74 µM | 4.23 µM | CCN(CC)CCNC(=O)CCc1c(C)[nH]c(/C=C2\C(=O)Nc3ccc(-c4csc(-c5ccccc5)n4)cc32)c1C [Example 149]
1.5 µM | 2.41 µM | 2.58 µM | 9.67 µM | 2 µM | 0.9 µM | CCN(CC)CCNC(=O)c1c(C)[nH]c(/C=C2\C(=O)Nc3ccc(-c4cc(-c5ccccc5)ccn4)cc32)c1C [Example 198]
12.5 µM | 14.9 µM | 14.7 µM | 14.4 µM | 36.8 µM | 21.1 µM | Cc1cc(C)c(/C=C2\C(=O)Nc3ccc(-c4ccc(O)cc4C)cc32)[nH]1 [Example 261]
9.31 µM | 8.84 µM | 14.5 µM | 37.4 µM | 35 µM | 2.72 µM | Cc1cc(C)c(/C=C2\C(=O)Nc3ccc(-c4csc(-n5ccnc5)n4)cc32)[nH]1 [Example 215]
3.66 µM | 3.64 µM | 1.74 µM | 0.06 µM | 6.64 µM | 2.73 µM | CCN(CC)CCNC(=O)c1c(C)[nH]c(/C=C2\C(=O)Nc3ccc(-c4cnc5cccnn45)cc32)c1C [Example 179]
5.86 µM | 4.65 µM | 4.63 µM | 17.6 µM | 17.2 µM | 3.44 µM | CCN(CC)CCNC(=O)c1c(C)[nH]c(/C=C2\C(=O)Nc3ccc(-c4cnc5ccccn45)cc32)c1C [Example 192]
15.4 µM | 3.5 µM | 6.02 µM | 0.09 µM | 18 µM | 1.15 µM | CCN(CC)CCNC(=O)c1c(C)[nH]c(/C=C2\C(=O)Nc3ccc(-c4ncccn4)cc32)c1C [Example 182]
17.2 µM | 1.44 µM | 7.57 µM | 2.5 µM | 2.31 µM | 2.91 µM | O=C1Nc2ccc(-c3csc(-c4ccccc4)n3)cc2/C1=C/c1ncc[nH]1 [Example 150]
